Several values for one entry are separate records, joined by “and”; a condition that tells them apart may be missing. Identical values can stand only once. Where a SMILES comes first, the peptide text is derived from it. [ ]: non-standard residue; d: D form. Phe(4-Cl) = N[CH](Cc1ccc(Cl)cc1)C(=O)O; 3Pal = N[CH](Cc1cccnc1)C(=O)O
Target: T1, ATX (Homo sapiens, UniProt Q13822)
T1 construct: conditioned serum-free medium (CCM) from MDA-MB-435 cells as the source of ATX; endogenous in cells; host or cells: MDA-MB-435 cells (about 10x concentrated conditioned serum-free medium)
Test: ATX inhibition assay (FS-3 substrate)
Assay type: biochemical
Settings: for % Response: preliminary screen, FS-3 hydrolysis at one hour, normalized to vehicle control, mean±S.D., same values given at 10 μM in Table 5
Experimental: ATX inhibition was assayed using the substrate FS-3 (Echelon Biosciences, Inc., Salt Lake City, Utah, USA). The FS-3 assay used ˜10 times concentrated conditioned serum-free medium (CCM) from MDA-MB-435 cells as the source of ATX, while CCM comprised one-third of the total volume. The final volume for FS-3 was comprised of the substrate at varying concentrations and 30 μM charcoal-stripped fatty acid free BSA (Sigma Aldrich) in assay buffer (1 mM each CaCl2 and MgCl2, 5 mM KCl, 140 mM NaCl, 50 mM Tris pH 8.0).
All assays were performed in 96-well plates with data read at 1 minute intervals by a Synergy2 system (BioTek, Winooski, Vt.). The fluorescence produced upon the hydrolysis of FS-3 was monitored using an excitation wavelength of 485 nm and an emission wavelength of 528 nm at 37° C. (Ferguson et al., 2006). […] All readings were normalized to vehicle control after subtraction of fluorescence in the absence of CCM. Data are shown as the mean±S.D. of at least three wells.

[1] = Calculated IC50 data for the 30 active compounds, FS-3 substrate

SMILES	% Response	also measured
Cc1ccc(C(=O)Nc2ccc(S(=O)(=O)O)c3cc(S(=O)(=O)O)cc(S(=O)(=O)O)c23)cc1NC(=O)c1cccc(NC(=O)Nc2cccc(C(=O)Nc3cc(C(=O)Nc4ccc(S(=O)(=O)O)c5cc(S(=O)(=O)O)cc(S(=O)(=O)O)c45)ccc3C)c2)c1.Cc1ccc(C)c2c1c(NCCCCCCNc1cc(C)[n+](C)c3c(C)ccc(C)c13)cc(C)[n+]2C [compound 32275]	94 ± 6.5%	
Nc1ccc(/N=N/c2ccc(-c3ccc(/N=N/c4c(S(=O)(=O)O)cc5cc(S(=O)(=O)O)c(/N=N/c6ccc([N+](=O)[O-])cc6)c(N)c5c4O)cc3)cc2)c2ccc(S(=O)(=O)O)cc12 [NSC 77520]		% ATX Acitivity (10 μM) (10 μM compound, FS-3 substrate): 32 ± 2.7%; IC50 (FS-3 substrate): 4.07 µM
CCOc1ccc(N=c2ccc3c(-c4c(Cl)ccc(Cl)c4C(=O)O)c4ccc(Nc5ccc(OCC)cc5S(=O)(=O)O)cc4oc-3c2)cc1.[Na+] [compound 8682]	52 ± 7.7%	
Cc1ccc(C(=O)Nc2ccc(S(=O)(=O)O)c3cc(S(=O)(=O)O)cc(S(=O)(=O)O)c23)cc1NC(=O)c1cccc(NC(=O)Nc2cccc(C(=O)Nc3cc(C(=O)Nc4ccc(S(=O)(=O)O)c5cc(S(=O)(=O)O)cc(S(=O)(=O)O)c45)ccc3C)c2)c1 [compound 34936]	73 ± 9.0% and 83 ± 5.8%	
Cc1[nH]n(-c2cc(S(=O)(=O)O)ccc2Cl)c(=O)c1N=Nc1c(NC(=O)c2ccc(N)cc2)ccc2cc(S(=O)(=O)O)ccc12.[Na+] [compound 75963]	51 ± 4.4%	
O=C1C(c2[nH]c3ccc(S(=O)(=O)O)cc3c2O)=Nc2ccc(S(=O)(=O)O)cc21 [compound 8646]	88 ± 9.2%	
COc1ccc(C(=O)Nc2ccc(/C=C/c3ccc(NC(=O)c4ccc(OC)cc4)cc3S(=O)(=O)O)c(S(=O)(=O)O)c2)cc1.[Na+] [compound 12858]	98 ± 7.4%	
Cc1cc(C)c(N=Nc2cc(C)c(N=Nc3c(S(=O)(=O)[O-])cc4cc(Nc5ccccc5)ccc4c3O)cc2C)c(S(=O)(=O)[O-])c1.[Na+].[Na+] [compound 47747]	73 ± 3.0%	
Cc1cc(-c2ccc(N=Nc3c(N)c(S(=O)(=O)O)cc4cc(S(=O)(=O)O)ccc34)c(C)c2)ccc1N=Nc1cc(S(=O)(=O)O)c2ccccc2c1N [compound 7815]	32 ± 5.5%	IC50 [1]: 13.4 µM
O=C(Nc1ccc2c(O)cc(S(=O)(=O)O)cc2c1)Nc1ccc2c(O)cc(S(=O)(=O)O)cc2c1 [compound 45174]	89 ± 3.2%	
O=S(=O)(O)c1cc(O)c2ccc(Nc3ccc4c(O)cc(S(=O)(=O)O)cc4c3)cc2c1 [compound 37203]	92 ± 9.1%	
Nc1ccc(N=Nc2ccc(-c3ccc(N=Nc4c(S(=O)(=O)O)cc5cc(S(=O)(=O)O)c(N=Nc6cccc([N+](=O)[O-])c6)c(N)c5c4O)cc3)cc2)c(N)c1.[Na+] [compound 79593]	37 ± 2.6%	IC50 [1]: 6.36 µM
O=C(Nc1ccc2c(O)cc(S(=O)(=O)[O-])cc2c1)Nc1ccc2c(O)c(N=Nc3ccc4cc(S(=O)(=O)[O-])ccc4c3)c(S(=O)(=O)[O-])cc2c1.[Na+].[Na+].[Na+] [compound 45616]	64 ± 3.0%	
NC(=N\N=C/c1ccc(O)c(S(=O)(=O)O)c1)/C(N)=N\N=C/c1ccc(O)c(S(=O)(=O)O)c1.[Na+] [compound 47470]	90 ± 3.2%	
COc1ccccc1N=Nc1c(S(=O)(=O)[O-])cc2cc(NC(=O)Nc3ccc4c(O)c(N=Nc5ccc(S(=O)(=O)[O-])cc5C)c(S(=O)(=O)[O-])cc4c3)ccc2c1O.[Na+].[Na+].[Na+] [compound 47764]	41 ± 4.3%	IC50 [1]: 18.2 µM
COc1cc(N=Nc2cc(S(=O)(=O)[O-])cc3cc(S(=O)(=O)[O-])cc(O)c23)c(C)cc1N=Nc1c(S(=O)(=O)[O-])cc2cc(Nc3ccccc3)ccc2c1O.[Na+].[Na+].[Na+] [compound 47755]	47 ± 3.7%	IC50 [1]: 37.6 µM
O=C(NC(CSSCC(NC(=O)c1ccc([N+](=O)[O-])cc1)C(=O)O)C(=O)O)c1ccc([N+](=O)[O-])cc1 (stereo not shown) [compound 2532]	95 ± 5.7%	
CC(=O)Nc1ccc(N=Nc2c(S(=O)(=O)O)cc3cc(NC(=O)Nc4ccc5c(O)c(N=Nc6ccccc6)c(S(=O)(=O)O)cc5c4)ccc3c2O)cc1.[Na+] [compound 47762]	83 ± 5.5%	

SMILES	% Response	also measured
COc1nc(Nc2ccc(/C=C/c3ccc(Nc4nc(OC)nc(N(CCO)CCO)n4)cc3S(=O)(=O)[O-])c(S(=O)(=O)[O-])c2)nc(N(CCO)CCO)n1.[Na+].[Na+] [compound 306423]	94 ± 3.6%	
Nc1ccc2cc(S(=O)(=O)[O-])c(N=Nc3ccc(-c4ccc(N=Nc5c(S(=O)(=O)[O-])cc6cc(S(=O)(=O)[O-])cc(N)c6c5O)cc4)cc3)c(O)c2c1.[Na+].[Na+].[Na+] [compound 75779]	20 ± 5.7%	IC50 [1]: 1.26 µM
COc1ccc(/C=N/NC(=O)C(=O)N/N=C/c2ccc(OC)c(S(=O)(=O)O)c2)cc1S(=O)(=O)O [compound 56207]	100 ± 4.2%	
O=S(=O)(O)c1cc(O)c2ccc(Nc3ccc4c(O)cc(S(=O)(=O)O)cc4c3)cc2c1 [compound 1698]	89 ± 5.1%	
Nc1c(N=Nc2ccc([N+](=O)[O-])cc2)c(S(=O)(=O)O)cc2cc(S(=O)(=O)O)c(N=Nc3ccc(-c4ccc(N=Nc5ccc(O)cc5)cc4)cc3)c(O)c12.[Na+] [compound 7234]	49 ± 6.1%	IC50 [1]: 7.02 µM
Nc1ccc(N=Nc2ccc(-c3ccc(N=Nc4c(S(=O)(=O)O)cc5cc(S(=O)(=O)O)c(N=Nc6ccc([N+](=O)[O-])cc6)c(N)c5c4O)cc3)cc2)c2cc(S(=O)(=O)O)ccc12.Nc1ccc(N=Nc2ccc(-c3ccc(N=Nc4c(S(=O)(=O)O)cc5cc(S(=O)(=O)O)c(N=Nc6ccc([N+](=O)[O-])cc6)c(N)c5c4O)cc3)cc2)c2ccc(S(=O)(=O)O)cc12 [compound 77520]	32 ± 2.7%	IC50 [1]: 4.07 µM
Nc1c(N=Nc2ccc([N+](=O)[O-])cc2)c(S(=O)(=O)O)cc2cc(S(=O)(=O)O)c(N=Nc3ccc(-c4ccc(O)cc4)cc3)c(O)c12.[Na+] [compound 65560]	56 ± 4.9%	
O=C(Nc1ccc2c(O)c(N=Nc3ccccc3)c(S(=O)(=O)[O-])cc2c1)Nc1ccc2c(O)c(N=Nc3ccccc3)c(S(=O)(=O)[O-])cc2c1.[Na+].[Na+] [compound 16223]	77 ± 9.8%	
Nc1c(N=Nc2ccc([N+](=O)[O-])cc2)c(S(=O)(=O)O)cc2cc(S(=O)(=O)O)c(N=Nc3ccccc3)c(O)c12 [compound 7820]	110 ± 5.7%	
Nc1ccc2cc(S(=O)(=O)[O-])c(N=Nc3ccc(-c4ccc(N=Nc5c(S(=O)(=O)[O-])cc6cc(S(=O)(=O)[O-])c(N=Nc7cccc([N+](=O)[O-])c7)c(N)c6c5O)cc4)cc3)c(O)c2c1.[Na+].[Na+].[Na+] [compound 79744]	35 ± 2.9%	IC50 [1]: 11.5 µM
O=C(Nc1ccc(C(=O)Nc2cc(S(=O)(=O)O)cc3cccc(S(=O)(=O)O)c23)cc1)Nc1ccc(C(=O)Nc2cc(S(=O)(=O)O)cc3cccc(S(=O)(=O)O)c23)cc1.[Na+] [compound 12188]	105 ± 8.0%	
NC(=N\N=C/c1ccccc1S(=O)(=O)O)/C(N)=N\N=C/c1ccccc1S(=O)(=O)O.[Na+] [compound 47471]	95 ± 3.0%	
CC(=O)NC(Cc1ccc(Cl)cc1)C(=O)NC(Cc1ccc(Cl)cc1)C(=O)NC(Cc1cccnc1)C(=O)NC(CO)C(=O)NC(Cc1ccc(O)cc1)C(=O)NC(CCCN=C(N)N)C(=O)NC(CC(C)C)C(=O)NC(CCCN=C(N)N)C(=O)N1CCCC1C(=O)NC(C)C(=O)O (stereo not shown) [compound 373963] (Ac-[Phe(4-Cl)][Phe(4-Cl)][3Pal]SYRLRPA-OH; configuration not given here)	96 ± 2.5%	
Nc1cccc(N=Nc2c(S(=O)(=O)[O-])cc3cc(Nc4ccc5c(O)c(N=Nc6cccc(N)c6)c(S(=O)(=O)[O-])cc5c4)ccc3c2O)c1.[Na+].[Na+] [compound 51533]	67 ± 4.0%	
Cc1ccc(N=Nc2c(S(=O)(=O)[O-])cc3cc(NC(=O)Nc4ccc5c(O)c(N=Nc6ccc7cc(S(=O)(=O)[O-])ccc7c6)c(S(=O)(=O)[O-])cc5c4)ccc3c2O)c(C)c1.[Na+].[Na+].[Na+] [compound 65575]	33 ± 3.7%	IC50 [1]: 18.6 µM
O=C(COc1ccc(Cl)cc1C(=O)O)NCc1cccc(NC(=O)Nc2ccc(S(=O)(=O)F)cc2)c1 [compound 212086]	95 ± 4.3%	
Cc1ccccc1N=C(N)Nc1ccccc1C.Nc1c(N=Nc2ccc([N+](=O)[O-])cc2)c(S(=O)(=O)O)cc2cc(S(=O)(=O)O)c(N=Nc3ccc(Sc4ccc(N=Nc5ccc(O)cc5)cc4)cc3)c(O)c12 [compound 80902]	73 ± 4.5%	
Cc1cc(N=Nc2ccc(S(=O)(=O)[O-])cc2)c(N)c(N=Nc2ccc(S(=O)(=O)[O-])cc2)c1N.[Na+].[Na+] [compound 65540]	71 ± 4.4%	

Reference: patent US8343934B2, “Diverse lead compound autotaxin inhibitors” (University of Memphis, priority 2009, dated 2013)
